# Source: US20210023234A1, “ECTONUCLEOTIDE PYROPHOSPHATE-PHOSPHODIESTERASE (ENPP) CONJUGATES AND USES THEREOF” (AbbVie Inc., priority 2018, published 2021)
# Key:
# human ENPP-1 enzyme [1] = target: T1, human ENPP-1 enzyme (Homo sapiens, UniProt P22413); assay: ENPP1 Enzyme Assay with cGAMP Substrate (AMP-Glo); format: biochemical; conditions: 20 μM 2′3′-cGAMP substrate, 5 ng/well enzyme; for inhibition at 1 µM: 1 uM compound; for inhibition at 10 µM: 10 uM compound
# T1 construct: purchased R&D Systems
# T1 sequence (P22413 1-925): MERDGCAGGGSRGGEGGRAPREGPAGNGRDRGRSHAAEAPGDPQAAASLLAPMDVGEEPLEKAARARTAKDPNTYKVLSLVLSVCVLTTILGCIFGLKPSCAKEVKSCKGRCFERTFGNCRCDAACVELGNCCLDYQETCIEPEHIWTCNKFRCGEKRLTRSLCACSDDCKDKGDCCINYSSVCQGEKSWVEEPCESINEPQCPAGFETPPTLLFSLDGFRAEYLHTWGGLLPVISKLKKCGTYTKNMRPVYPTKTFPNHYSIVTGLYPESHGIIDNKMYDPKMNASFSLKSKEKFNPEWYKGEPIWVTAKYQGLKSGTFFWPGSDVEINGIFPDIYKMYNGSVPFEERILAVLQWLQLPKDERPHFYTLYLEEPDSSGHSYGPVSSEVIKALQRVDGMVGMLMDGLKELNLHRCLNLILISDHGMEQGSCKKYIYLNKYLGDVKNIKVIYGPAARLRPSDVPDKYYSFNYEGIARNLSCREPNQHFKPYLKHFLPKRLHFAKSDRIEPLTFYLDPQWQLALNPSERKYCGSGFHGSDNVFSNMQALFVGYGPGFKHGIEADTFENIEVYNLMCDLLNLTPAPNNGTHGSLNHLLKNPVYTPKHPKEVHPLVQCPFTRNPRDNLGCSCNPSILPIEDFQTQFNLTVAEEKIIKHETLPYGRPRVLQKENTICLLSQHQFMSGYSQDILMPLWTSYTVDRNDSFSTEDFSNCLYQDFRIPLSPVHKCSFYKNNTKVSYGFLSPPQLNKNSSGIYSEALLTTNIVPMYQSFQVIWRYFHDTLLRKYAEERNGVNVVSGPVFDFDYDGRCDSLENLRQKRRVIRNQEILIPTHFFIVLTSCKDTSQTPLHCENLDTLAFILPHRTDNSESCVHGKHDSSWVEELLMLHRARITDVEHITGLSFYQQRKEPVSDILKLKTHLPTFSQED
# Excerpt: ENPP1 Enzyme Assay with cGAMP Substrate:
# Ectonucleotide pyrophosphatase/phosphodiesterase 1 (ENPP-1) is a transmembrane glycoprotein that hydrolyzes nucleotides and nucleotide derivatives with the formation of nucleoside-5′-monophosphates. ENPP-1 hydrolyzes 2′3′-cGAMP (cGAMP), breaking it down into 5′-AMP and 5′-GMP. The 5′-AMP formed from the reaction is detected using the AMP-Glo® Kit (Promega). The assay kit contains two reagents. The first reagent terminates the enzymatic reaction, removes ATP (using adenylyl cyclase), and converts 5′-AMP produced into ADP (using polyphosphate: AMP phosphotransferase). The second reagent converts ADP to ATP (using adenylate kinase) and generates light from ATP using the luciferin/luciferase reaction. The amount of light measured is proportional to the amount of 5′-AMP produced by ENPP1.
# Different concentrations of exemplary ENPP1 inhibitors (synthetic molecules #1-7; see Table 1) were pre-incubated with 5 ng/well of human ENPP-1 enzyme (R&D Systems) for 15 minutes at 37° C. The reaction was initiated by adding 20 μM 2′3′-cGAMP and incubating for 30 minutes at 37° C. The final assay reaction mixture contained a buffer of 50 mM Tris pH 8.0, 250 mM NaCl, 0.5 mM CaCl2, 1 μM ZnCl2 and 1% DMSO. At the end of the incubation, the reaction was stopped by adding 12 μl of AMP-Glo reagent-1 and mixing the reaction uniformly for 5 minutes, followed by incubation at room temperature for one hour. Then 25 μl of AMP Glo reagent-2 was added to the reaction, mixed uniformly with a pipette, and incubated at room temperature for one hour to convert the ADP formed from reagent-1 to ATP and light. The generated light was measured in a Perkin Elmer Victor® instrument. Maximal activity control samples (containing enzyme, substrate, and buffer in the absence of ENPP1 inhibitors: MAX) and background control samples (containing enzyme, substrate, and buffer plus a fully inhibitory concentration (3 μM) of the reference ENPP1 Inhibitor, MV-0000002: MIN) were simultaneously evaluated in order to calculate the percent inhibition at each compound concentration as follows:
# % inhibition=(([MAX−MIN]−[COMPOUND−MIN])/[MAX−MIN])*100
# The IC50 values for percent inhibition versus compound concentration were determined by fitting the inhibition curves using a four-parameter variable slope model in GraphPad Prism® software. Ki values are derived from the IC50 values using the Cheng-Prusoff equation: […]
# human ENPP-1 enzyme [2] = target: T1, human ENPP-1 enzyme; assay: ENPP1 Enzyme Assay with TMP-pNP Substrate (absorbance at 405 nm); format: biochemical; conditions: read-out: TMP-pNP: % inhibition at 10 uM; 10 uM compound; 200 μM TMP-pNP substrate; 15 ng/well enzyme
# Procedure: ENPP1 Enzyme Assay with TMP-pNP Substrate:
# ENPP-1 hydrolyzes thymidine 5′monophosphate p-nitrophenyl ester (TMP-pNP) to nucleotide-5′-monophosphate and p-nitrophenol, which is a chromogenic product. The amount of p-nitrophenol product formed is measured using its absorbance at 405 nm, which is directly proportional to enzyme activity. Different concentrations of inhibitors (synthetic molecules #1-7; see Table 1) were pre-incubated with 15 ng/well of human ENPP-1 enzyme (R&D Systems) for 15 minutes at 37° C. The reaction was initiated by adding 200 μM TMP-pNP and incubating for 10 minutes at 37° C. […] The amount of product formed was measured directly ina Tecan® spectrophotometer. Maximal activity control samples (containing enzyme, substrate, and buffer in the absence of ENPP1 inhibitors: MAX) and background control samples (containing enzyme, substrate, and buffer plus a fully inhibitory concentration (3 μM) of the reference ENPP1 Inhibitor, MV-0000002: MIN) are simultaneously evaluated in order to calculate the percent inhibition at each compound concentration as follows: […]
# The IC50 values for percent inhibition versus compound concentration were determined by fitting the inhibition curves (percent inhibition versus inhibitor concentration) using a four-parameter variable slope model in GraphPad Prism® software. […]
inhibition at 1 µM (human ENPP-1 enzyme [1]) [%],inhibition at 10 µM (human ENPP-1 enzyme [2]) [%],inhibition at 10 µM (human ENPP-1 enzyme [1]) [%],Compound
,≥ 75,≥ 75,"COc1cc2ncnc(N3CCC4(CC3)CN(S(N)(=O)=O)C4)c2cc1OC [compound 5, 7-(6,7-dimethoxyquinazolin-4-yl)-2,7-diazaspiro[3.5]nonane-2-sulfonamide]"
≥ 75,,,"COc1cc2ncnc(N3CCc4c(cccc4S(N)(=O)=O)C3)c2cc1OC [compound 6, 2-(6,7-dimethoxyquinazolin-4-yl)-1,2,3,4-tetrahydroisoquinoline-5-sulfonamide]"
,,≥ 75,"COc1cc2ncnc(NCCc3cccc(NS(N)(=O)=O)c3)c2cc1OC [compound 7, N-(3-(2-((6,7-dimethoxyquinazolin-4-yl)amino)ethyl)phenyl)sulfonic amide]"

# The remaining lines, values behind:
Compound,inhibition at 1 µM (human ENPP-1 enzyme [1]) [%],inhibition at 10 µM (human ENPP-1 enzyme [2]) [%],inhibition at 10 µM (human ENPP-1 enzyme [1]) [%]
"COc1cc2ncc(C(N)=O)c(N3CCC(CCNS(N)(=O)=O)CC3)c2cc1OC [compound 2, 6,7-dimethoxy-4-(4-(2-(sulfamoylamino)ethyl)piperidin-1-yl)quinoline-3-carboxamide]",≥ 75,≥ 75,
"Cn1ncc2c(N3CCC(CCNS(N)(=O)=O)CC3)ncnc21 [compound 3, N-(2-(1-(1-methyl-1H-pyrazolo[3,4-d]pyrimidin-4-yl)piperidin-4-yl)ethyl)sulfonic amide]",,,≥ 75
